The values that follow come from ChEMBL document CHEMBL1145633, “Inhibitors of the tyrosine kinase EphB4. Part 1: Structure-based design and optimization of a series of 2,4-bis-anilinopyrimidines” (Bioorg Med Chem Lett, 2008).

≈ marks a conversion by molar mass, not a printed value.

Data set [1] deals with Proto-oncogene tyrosine-protein kinase Src (Homo sapiens, UniProt P12931). As to the kind of experiment: Inhibition of Src.
For data set [2], the target named is Tyrosine-protein kinase CSK (Homo sapiens, UniProt P41240). Kind of data set: Inhibition of CSK.
The target in data set [3] is Cyclin-dependent kinase 2 (Homo sapiens, UniProt P24941). As to the kind of experiment: Inhibition of CDK2.
The target in the next data set is Focal adhesion kinase 1 (Homo sapiens, UniProt Q05397). As to the kind of experiment: Inhibition of FAK.
The target of data set [4] is T1, Tyrosine-protein kinase JAK3 (Homo sapiens, UniProt P52333).
T1 sequence (P52333 whole entry): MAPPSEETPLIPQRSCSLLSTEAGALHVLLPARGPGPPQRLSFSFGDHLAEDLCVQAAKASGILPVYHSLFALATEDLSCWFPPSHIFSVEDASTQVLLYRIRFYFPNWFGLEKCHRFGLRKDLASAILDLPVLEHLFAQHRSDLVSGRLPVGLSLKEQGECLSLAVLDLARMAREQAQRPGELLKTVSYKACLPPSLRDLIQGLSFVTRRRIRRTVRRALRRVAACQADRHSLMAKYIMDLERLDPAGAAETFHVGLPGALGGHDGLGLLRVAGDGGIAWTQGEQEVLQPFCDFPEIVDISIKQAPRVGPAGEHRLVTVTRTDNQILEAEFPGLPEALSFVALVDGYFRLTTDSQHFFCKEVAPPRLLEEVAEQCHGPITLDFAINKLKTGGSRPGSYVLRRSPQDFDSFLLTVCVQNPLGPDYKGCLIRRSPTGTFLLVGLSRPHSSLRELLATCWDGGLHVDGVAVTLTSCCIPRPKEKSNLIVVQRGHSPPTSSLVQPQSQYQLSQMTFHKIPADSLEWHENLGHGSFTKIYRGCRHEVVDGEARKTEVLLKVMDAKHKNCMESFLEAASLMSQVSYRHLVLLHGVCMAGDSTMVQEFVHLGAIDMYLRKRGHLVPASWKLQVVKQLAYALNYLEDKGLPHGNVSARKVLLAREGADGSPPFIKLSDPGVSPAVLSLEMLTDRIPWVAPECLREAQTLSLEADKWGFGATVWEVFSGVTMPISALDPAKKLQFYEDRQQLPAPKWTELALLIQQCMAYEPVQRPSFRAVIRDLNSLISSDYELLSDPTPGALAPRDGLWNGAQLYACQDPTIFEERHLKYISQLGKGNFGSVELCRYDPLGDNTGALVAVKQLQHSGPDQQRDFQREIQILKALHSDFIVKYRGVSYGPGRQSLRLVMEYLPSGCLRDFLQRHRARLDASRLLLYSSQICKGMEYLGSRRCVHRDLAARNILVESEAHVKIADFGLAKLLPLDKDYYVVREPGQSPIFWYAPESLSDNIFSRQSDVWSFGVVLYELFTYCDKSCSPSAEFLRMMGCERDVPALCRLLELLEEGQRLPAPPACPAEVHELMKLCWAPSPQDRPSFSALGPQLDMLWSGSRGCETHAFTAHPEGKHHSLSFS
As to the kind of experiment: Inhibition of JAK3.

Data set [5] in a line: Inhibition of p38.
Data set [6] has as its target Insulin-like growth factor 1 receptor (Homo sapiens, UniProt P08069). As to the kind of experiment: Inhibition of IGF.
Data set [7] has as its target T2, Tyrosine-protein kinase ZAP-70 (Homo sapiens, UniProt P43403).
T2 sequence (P43403 whole entry): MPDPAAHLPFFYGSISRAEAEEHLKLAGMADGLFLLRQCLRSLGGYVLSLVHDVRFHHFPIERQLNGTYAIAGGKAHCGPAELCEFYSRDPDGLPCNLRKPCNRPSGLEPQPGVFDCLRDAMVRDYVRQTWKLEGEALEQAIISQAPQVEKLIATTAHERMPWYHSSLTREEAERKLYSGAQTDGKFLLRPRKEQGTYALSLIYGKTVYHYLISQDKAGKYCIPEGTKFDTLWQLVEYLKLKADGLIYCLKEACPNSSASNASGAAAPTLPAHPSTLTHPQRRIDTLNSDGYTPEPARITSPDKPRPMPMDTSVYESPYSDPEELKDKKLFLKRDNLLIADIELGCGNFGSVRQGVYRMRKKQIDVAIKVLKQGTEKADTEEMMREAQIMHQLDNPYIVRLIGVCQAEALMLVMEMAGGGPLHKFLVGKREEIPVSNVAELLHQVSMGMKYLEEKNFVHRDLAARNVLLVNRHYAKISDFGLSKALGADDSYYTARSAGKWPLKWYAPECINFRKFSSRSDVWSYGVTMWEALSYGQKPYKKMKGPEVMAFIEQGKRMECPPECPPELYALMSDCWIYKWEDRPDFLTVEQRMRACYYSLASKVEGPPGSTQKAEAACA
As to the kind of experiment: Inhibition of ZAP70.

Data set [8] has as its target Vascular endothelial growth factor receptor 2 (Homo sapiens, UniProt P35968). Kind of data set: Inhibition of KDR.
Data set [9] concerns the target Serine/threonine-protein kinase PLK1 (Homo sapiens, UniProt P53350). Kind of data set: Inhibition of PLK.
For data set [10], the target named is T3, Serine/threonine-protein kinase Chk1 (Homo sapiens, UniProt O14757).
T3 sequence (O14757 whole entry): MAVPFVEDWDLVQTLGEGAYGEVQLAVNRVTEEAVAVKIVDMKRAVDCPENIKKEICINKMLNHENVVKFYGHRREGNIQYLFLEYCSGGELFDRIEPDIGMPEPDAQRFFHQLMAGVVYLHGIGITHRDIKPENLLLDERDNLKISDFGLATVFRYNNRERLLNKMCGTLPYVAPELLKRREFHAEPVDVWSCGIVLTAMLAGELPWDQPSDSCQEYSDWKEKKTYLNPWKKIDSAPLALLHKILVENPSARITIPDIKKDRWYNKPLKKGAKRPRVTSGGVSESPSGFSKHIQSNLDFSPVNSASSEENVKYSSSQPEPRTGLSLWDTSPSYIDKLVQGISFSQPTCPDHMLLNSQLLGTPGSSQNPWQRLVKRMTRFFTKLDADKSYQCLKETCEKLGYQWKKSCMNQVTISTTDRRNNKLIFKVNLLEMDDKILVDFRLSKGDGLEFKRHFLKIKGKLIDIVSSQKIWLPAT
As to the kind of experiment: Inhibition of CHK1.

A short description of data set [11]: Inhibition of JNK.
Data set [12] in a line: Inhibition of PKA.
The nature of data set [13]: Lipophilicity, Log D of compound at pH 7.4. Conditions: buffer. The format is physicochemical.
Data set [14] is described as follows: Aqueous solubility of compound at pH 7.4. It counts as physicochemical.
In another data set the test system is Plasma. As to the kind of experiment: Protein binding in Han Wistar rat plasma assessed as free drug. The format is ADME, cell-free.
A short description of data set [15]: Bioavailability in Han Wistar rat at 5 umol/kg, po. It counts as ADME, organism-based. The following applies: in vivo.
Data set [16] in a line: Volume of distribution at steady state in Han Wistar rat at 5 umol/kg, po or 0.5 umol/kg, iv. It counts as ADME, organism-based. Conditions: in vivo, read-out: Vdss.
The nature of data set [17]: Half life in Han Wistar rat at 5 umol/kg, po. Conditions: in vivo. The format is ADME, organism-based.
Data set [18] is described as follows: AUC in Han Wistar rat at 5 umol/kg, po. It counts as ADME, organism-based. The following applies: plasma.
Data set [19] can be described thus: Clearance in Han Wistar rat at 5 umol/kg, po or 0.5 umol/kg, iv. It counts as ADME, organism-based. The following applies: in vivo.
Data set [20] is described as follows: Inhibition of FGF.

Sequence of Serine/threonine-protein kinase PLK1 (P53350 whole entry): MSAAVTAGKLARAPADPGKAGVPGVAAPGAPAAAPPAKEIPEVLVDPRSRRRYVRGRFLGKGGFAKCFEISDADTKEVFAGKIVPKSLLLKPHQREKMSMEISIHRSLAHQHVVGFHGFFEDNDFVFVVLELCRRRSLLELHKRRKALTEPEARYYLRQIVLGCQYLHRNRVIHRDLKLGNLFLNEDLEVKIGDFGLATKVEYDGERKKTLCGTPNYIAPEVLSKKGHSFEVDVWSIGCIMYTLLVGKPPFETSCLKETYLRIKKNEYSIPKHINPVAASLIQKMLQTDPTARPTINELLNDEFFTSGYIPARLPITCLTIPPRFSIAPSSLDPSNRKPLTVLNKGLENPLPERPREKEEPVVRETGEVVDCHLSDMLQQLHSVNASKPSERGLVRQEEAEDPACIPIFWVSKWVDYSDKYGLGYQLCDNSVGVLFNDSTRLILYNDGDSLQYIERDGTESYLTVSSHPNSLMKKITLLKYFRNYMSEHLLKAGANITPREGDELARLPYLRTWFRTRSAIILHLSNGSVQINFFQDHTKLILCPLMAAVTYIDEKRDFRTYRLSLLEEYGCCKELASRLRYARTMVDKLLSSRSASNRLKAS
Sequence of Tyrosine-protein kinase CSK (P41240 whole entry): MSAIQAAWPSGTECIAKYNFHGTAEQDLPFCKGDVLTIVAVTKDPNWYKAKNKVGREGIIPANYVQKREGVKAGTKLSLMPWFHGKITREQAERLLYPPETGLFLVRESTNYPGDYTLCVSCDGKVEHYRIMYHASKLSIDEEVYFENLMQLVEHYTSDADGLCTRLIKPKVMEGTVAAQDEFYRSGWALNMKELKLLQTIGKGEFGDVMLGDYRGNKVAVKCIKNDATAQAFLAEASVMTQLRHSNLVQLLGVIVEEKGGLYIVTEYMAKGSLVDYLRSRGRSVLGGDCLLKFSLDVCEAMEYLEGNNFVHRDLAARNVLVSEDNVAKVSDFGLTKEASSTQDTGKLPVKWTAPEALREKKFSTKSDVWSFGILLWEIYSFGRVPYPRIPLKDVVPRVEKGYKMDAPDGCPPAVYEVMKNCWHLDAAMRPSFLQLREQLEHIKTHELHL
Sequence of Insulin-like growth factor 1 receptor (P08069 31-736 limits assumed): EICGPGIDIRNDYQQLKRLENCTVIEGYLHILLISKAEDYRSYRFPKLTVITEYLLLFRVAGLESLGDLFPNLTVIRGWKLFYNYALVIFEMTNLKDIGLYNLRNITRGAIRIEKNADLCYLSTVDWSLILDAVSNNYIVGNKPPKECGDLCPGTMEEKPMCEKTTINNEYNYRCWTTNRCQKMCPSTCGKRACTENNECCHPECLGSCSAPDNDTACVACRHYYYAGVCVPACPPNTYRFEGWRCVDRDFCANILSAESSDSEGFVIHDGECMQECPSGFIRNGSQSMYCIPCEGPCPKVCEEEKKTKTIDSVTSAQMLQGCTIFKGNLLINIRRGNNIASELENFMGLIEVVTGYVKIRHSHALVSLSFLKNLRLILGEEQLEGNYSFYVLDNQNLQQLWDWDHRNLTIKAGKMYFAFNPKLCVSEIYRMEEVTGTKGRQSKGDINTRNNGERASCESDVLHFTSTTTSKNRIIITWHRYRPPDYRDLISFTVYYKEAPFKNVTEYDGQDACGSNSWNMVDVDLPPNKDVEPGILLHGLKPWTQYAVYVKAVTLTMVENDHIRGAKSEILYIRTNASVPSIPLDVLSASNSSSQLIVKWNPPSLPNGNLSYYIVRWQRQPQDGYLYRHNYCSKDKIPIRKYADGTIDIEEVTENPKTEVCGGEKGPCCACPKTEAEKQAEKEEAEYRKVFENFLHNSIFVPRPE
Sequence of Insulin-like growth factor 1 receptor (P08069 741-1367 limits assumed): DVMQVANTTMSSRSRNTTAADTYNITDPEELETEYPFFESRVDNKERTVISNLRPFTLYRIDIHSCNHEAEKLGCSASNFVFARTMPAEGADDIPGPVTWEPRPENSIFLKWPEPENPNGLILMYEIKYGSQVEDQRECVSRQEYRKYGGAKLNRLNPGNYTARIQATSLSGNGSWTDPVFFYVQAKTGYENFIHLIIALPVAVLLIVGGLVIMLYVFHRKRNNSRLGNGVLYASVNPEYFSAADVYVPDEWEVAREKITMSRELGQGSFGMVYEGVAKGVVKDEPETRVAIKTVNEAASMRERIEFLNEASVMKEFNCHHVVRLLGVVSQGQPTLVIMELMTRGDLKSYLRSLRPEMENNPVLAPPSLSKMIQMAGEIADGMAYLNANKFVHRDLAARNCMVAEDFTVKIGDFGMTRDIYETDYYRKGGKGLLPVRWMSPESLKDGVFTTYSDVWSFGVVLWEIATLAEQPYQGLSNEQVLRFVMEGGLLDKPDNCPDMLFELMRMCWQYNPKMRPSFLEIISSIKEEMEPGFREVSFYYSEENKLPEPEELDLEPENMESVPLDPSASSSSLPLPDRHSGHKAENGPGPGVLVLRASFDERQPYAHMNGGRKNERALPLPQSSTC
Sequence of Vascular endothelial growth factor receptor 2 (P35968 whole entry): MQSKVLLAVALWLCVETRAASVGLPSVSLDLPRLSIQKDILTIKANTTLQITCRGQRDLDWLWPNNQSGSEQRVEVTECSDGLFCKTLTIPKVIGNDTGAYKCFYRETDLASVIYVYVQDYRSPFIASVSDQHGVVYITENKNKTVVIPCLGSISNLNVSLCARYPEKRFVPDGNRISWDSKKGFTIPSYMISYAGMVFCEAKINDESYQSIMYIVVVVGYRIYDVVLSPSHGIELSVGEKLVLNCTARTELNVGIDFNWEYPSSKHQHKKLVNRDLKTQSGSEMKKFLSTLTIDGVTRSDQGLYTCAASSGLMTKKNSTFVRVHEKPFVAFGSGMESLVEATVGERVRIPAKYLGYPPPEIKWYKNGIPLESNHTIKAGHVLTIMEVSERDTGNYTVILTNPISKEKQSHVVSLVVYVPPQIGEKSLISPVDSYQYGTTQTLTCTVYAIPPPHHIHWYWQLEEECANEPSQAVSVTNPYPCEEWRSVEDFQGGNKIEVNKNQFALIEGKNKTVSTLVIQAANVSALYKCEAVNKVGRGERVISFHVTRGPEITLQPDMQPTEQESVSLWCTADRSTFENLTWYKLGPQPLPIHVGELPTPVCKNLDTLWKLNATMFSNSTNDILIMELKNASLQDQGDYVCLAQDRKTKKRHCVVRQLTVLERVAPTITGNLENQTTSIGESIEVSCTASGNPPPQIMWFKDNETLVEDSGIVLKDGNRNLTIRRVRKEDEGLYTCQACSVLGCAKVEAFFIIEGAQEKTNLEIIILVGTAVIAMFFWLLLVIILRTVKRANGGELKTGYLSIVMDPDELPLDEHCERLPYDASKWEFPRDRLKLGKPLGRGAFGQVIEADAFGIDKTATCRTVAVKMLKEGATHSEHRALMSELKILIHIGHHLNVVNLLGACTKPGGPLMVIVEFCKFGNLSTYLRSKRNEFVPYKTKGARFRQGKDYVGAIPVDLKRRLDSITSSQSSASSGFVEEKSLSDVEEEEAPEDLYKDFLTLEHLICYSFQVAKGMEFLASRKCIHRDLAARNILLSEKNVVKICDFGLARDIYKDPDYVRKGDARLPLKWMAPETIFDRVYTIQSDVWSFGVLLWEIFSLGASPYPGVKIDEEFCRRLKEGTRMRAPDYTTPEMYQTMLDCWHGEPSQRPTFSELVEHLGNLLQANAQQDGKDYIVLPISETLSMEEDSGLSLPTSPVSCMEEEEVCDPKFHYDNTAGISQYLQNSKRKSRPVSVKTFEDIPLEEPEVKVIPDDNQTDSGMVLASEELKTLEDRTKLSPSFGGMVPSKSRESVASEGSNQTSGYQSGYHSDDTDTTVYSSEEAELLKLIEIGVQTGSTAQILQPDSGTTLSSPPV
Sequence of Proto-oncogene tyrosine-protein kinase Src (P12931 2-536 limits assumed): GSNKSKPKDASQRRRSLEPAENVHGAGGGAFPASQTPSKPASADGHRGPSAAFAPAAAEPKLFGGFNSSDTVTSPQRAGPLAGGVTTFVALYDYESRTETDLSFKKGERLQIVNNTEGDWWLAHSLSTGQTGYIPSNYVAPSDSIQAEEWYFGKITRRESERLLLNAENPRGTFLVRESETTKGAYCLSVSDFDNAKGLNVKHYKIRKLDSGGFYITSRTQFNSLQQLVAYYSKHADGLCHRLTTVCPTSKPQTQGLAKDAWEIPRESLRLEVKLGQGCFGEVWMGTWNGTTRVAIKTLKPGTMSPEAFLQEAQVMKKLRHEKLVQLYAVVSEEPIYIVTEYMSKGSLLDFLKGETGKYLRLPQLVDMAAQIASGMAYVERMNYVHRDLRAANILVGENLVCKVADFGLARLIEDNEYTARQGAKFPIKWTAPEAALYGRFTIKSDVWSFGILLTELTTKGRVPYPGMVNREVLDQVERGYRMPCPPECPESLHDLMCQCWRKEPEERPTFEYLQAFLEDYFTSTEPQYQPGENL

The term IC50 denotes the concentration needed to halve the response being measured. Broadly, the logD is the decadic logarithm of the distribution of all forms, ionised or not, between an organic phase and buffer at a given pH. Read a low logD as a more hydrophilic compound. One may read the solubility as the concentration that dissolves in the medium under given conditions. High values mean a readily soluble substance, low ones a poorly soluble substance. Broadly, the bioavailability is dose-corrected exposure relative to a reference, in per cent. In general, half-life refers to the time in which the quantity being followed falls by half. A high value points to slow loss. For orientation: AUC means the area under the concentration-time curve, a measure of exposure. On to `CS(=O)(=O)c1cccc(Nc2nccc(Nc3c(Cl)ccc4c3OCO4)n2)c1`, for which the IC50 in [1] was less than 0.1 µM; in [2] it was 10.7 µM; in [3] it was 17.6 µM; against Focal adhesion kinase 1 it was 19.7 µM; in data set [4], 20.5 µM; in data set [5] it was 27.1 µM. Also, the IC50 in data set [6], in [7], in [8], in [9], in [10] and in [11] was greater than 30 µM each time. The IC50 in data set [12] and in [20] was greater than 30 µM in each case. Further, the logD in [13] worked out at 3.13. The molecule also registered a solubility in data set [14] of 30 µM (≈ 12.6 µg/mL). In addition, the Fu in the data set with Plasma turned out to be 0.74%. The molecule also returned a bioavailability in [15] of 30%. The Vd in data set [16] was determined as 0.5 L/kg. This molecule also showed a half-life in [17] of 5.3 h. Further, in data set [18], the AUC was 4 µM·h. In data set [19], this molecule displayed a clearance of 6.1 mL/min/kg.
